Data: patent US12653772B2, “Use of a rosebush extract as depigmenting active agent” (L'OREAL, priority 2020, dated 2026)

Test system: reconstructed pigmented Episkin model
Assay: Depigmenting effect by topical application on the reconstructed pigmented Episkin model; melanin quantified by image analysis of Fontana-Masson stained sections
Type: cell-based
Settings: DMSO control 569.02
Description: The results of the evaluation are compared to those of the solvent (DMSO) control and of a reference whitening active agent (Lucinol).
The histological quality of the epidermis after treatment was evaluated on the HES-stained histological section in order to determine the effect of the treatment on the epidermis.
The melanocyte physiology was also evaluated in order to detect melanocyte cytotoxicity.
The melanin present in the PRE is stained on the histological slide (Fontana-Masson staining) and then quantified by image analysis.
Each epidermis slide is digitized using Nanozoomer®.
For each epidermis, about 10˜15 images are extracted (white light, magnification ×20).
The area occupied by melanin is quantified using the Histolab® software.
Two parameters, namely graphic comparison (box-plot) and p value significance (Mann-Whitney U test), were applied to the interpretation of the statistical results.
Up to 6 repetitions were calculated for each treatment group.
The statistical significance between the test groups and the corresponding solvent controls was determined using the non-parametric Mann-Whitney U test (n=6).
The statistical significance is defined if the p value is less than 0.05. […]
The area occupied by melanin is quantified using the Histolab® software and is represented by the mean pixel number per image. […]

Compound: CCCCc1ccc(O)cc1O [Lucinol]
- Mean pixel number/image (area occupied by melanin) (300 μM): 394.69
- Mean pixel number/image (area occupied by melanin) (500 μM): 467.76
